{"source": "patent US20080200454A1", "about": "“CARBON-LINKED TETRAHYDRO-PYRAZOLO-PYRIDINE MODULATORS OF CATHEPSIN S” (priority 2007, published 2008)"}
{"target": "Recombinant human cathepsin S (CatS) (Homo sapiens, UniProt P25774)", "sequence (P25774 115-331)": "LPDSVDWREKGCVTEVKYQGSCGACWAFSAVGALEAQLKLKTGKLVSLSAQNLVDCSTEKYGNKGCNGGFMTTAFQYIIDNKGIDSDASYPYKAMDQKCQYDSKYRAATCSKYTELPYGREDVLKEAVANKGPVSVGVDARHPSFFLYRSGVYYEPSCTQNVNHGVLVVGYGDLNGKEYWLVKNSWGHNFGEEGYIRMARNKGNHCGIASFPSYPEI", "test": "Recombinant human cathepsin S (CatS) inhibition assay, fluorogenic substrate Z-Valine-Valine-Arginine-AMC;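 note: Baculovirus-expressed CatS in pH 5.0 sodium acetate buffer with DTT and NaCl, fluorescence read each minute over 20 min, inhibition derived from rate slope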", "settings": "not given", "units": {"IC50": "nM"}}
{"smiles": "CS(=O)(=O)N1CCc2c(c(-c3ccc(Cl)c(C#Cc4ccc(CNCc5ccc(Cl)cc5)cc4)c3)nn2CCCN2CCN(c3ccccc3)CC2)C1", "note": "[Example 180, 1-{4-[(2-Chloro-5-{5-(methylsulfonyl)-1-[3-(4-phenylpiperazin-1-yl)propyl]-4,5,6,7-tetrahydro-1H-pyrazolo[4,3-c]pyridin-3-yl}phenyl)ethynyl]phenyl}-N-[(4-chlorophenyl)methyl]methanamine]", "IC50": 20}
{"smiles": "Cc1cccc(S(=O)(=O)NCCCc2cc(-c3nn(CCCN4CCC(N5CCCC5=O)CC4)c4c3CN(S(C)(=O)=O)CC4)ccc2Cl)c1", "note": "[Example 97, N-{3-[2-Chloro-5-(5-methanesulfonyl-1-{3-[4-(2-oxo-pyrrolidin-1-yl)-piperidin-1-yl]-propyl}-4,5,6,7-tetrahydro-1H-pyrazolo[4,3-c]pyridin-3-yl)-phenyl]-propyl}-3-methyl-benzenesulfonamide]", "IC50": 1310}
{"smiles": "CC(C)(C)OC(=O)N1CCC(C2CCN(C[C@H](O)Cn3nc(-c4ccc(Cl)c(CCc5ccc(Cl)cc5)c4)c4c3CCN(S(C)(=O)=O)C4)CC2)CC1", "note": "[Example 245, 1,1-Dimethylethyl 1′-{(2S)-3-[3-{4-chloro-3-[2-(4-chlorophenyl)ethyl]phenyl}-5-(methylsulfonyl)-4,5,6,7-tetrahydro-1H-pyrazolo[4,3-c]pyridin-1-yl]-2-hydroxypropyl}-4,4′-bipiperidine-1-carboxylate]", "IC50": 30}
{"smiles": "C[C@H]1COCCN1CCCn1nc(-c2ccc(Cl)c(C#Cc3ccc(Cl)c(CNCCCO)c3)c2)c2c1CCN(C(=O)C(N)=O)C2", "note": "[Example 271, (S)-2-{3-(4-Chloro-3-{4-chloro-3-[(3-hydroxy-propylamino)-methyl]-phenylethynyl}-phenyl)-1-[3-(3-methyl-morpholin-4-yl)-propyl]-1,4,6,7-tetrahydro-pyrazolo[4,3-c]pyridin-5-yl}-2-oxo-acetamide]", "IC50": 20}
{"smiles": "NC(=O)N1CCc2c(c(-c3ccc(Cl)c(C#Cc4ccc(Cl)c(C(=O)NC[C@@H]5CCCN5)c4)c3)nn2CCCN2CCSCC2)C1", "note": "[Example 558, 3-{4-Chloro-3-[(4-chloro-3-{[(2S)-pyrrolidin-2-ylmethyl]carbamoyl}phenyl)ethynyl]phenyl}-1-(3-thiomorpholin-4-ylpropyl)-1,4,6,7-tetrahydro-5H-pyrazolo[4,3-c]pyridine-5-carboxamide]", "IC50": 30}
{"smiles": "CS(=O)(=O)N1CCc2c(c(-c3ccc(Cl)c(C#CCc4ccccc4)c3)nn2CCCN2CCOCC2)C1", "note": "[Example 41, 3-[4-Chloro-3-(3-phenyl-prop-1-ynyl)-phenyl]-5-methanesulfonyl-1-(3-morpholin-4-yl-propyl)-4,5,6,7-tetrahydro-1H-pyrazolo[4,3-c]pyridine]", "IC50": 3950}
{"smiles": "CS(=O)(=O)N1CCc2c(c(-c3ccc(Cl)c(CCc4cccc(O)c4)c3)nn2CCCN2CCOCC2)C1", "note": "[Example 56, 3-(2-{2-Chloro-5-[5-methanesulfonyl-1-(3-morpholin-4-yl-propyl)-4,5,6,7-tetrahydro-1H-pyrazolo[4,3-c]pyridin-3-yl]-phenyl}-ethyl)-phenol]", "IC50": 910}
{"smiles": "CS(=O)(=O)N1CCc2c(c(-c3ccc(Cl)c(C#CC4CCCCC4)c3)nn2C[C@@H](O)CN2CCC(C3CCNCC3)CC2)C1", "note": "[Example 472, (2S)-1-(4,4′-Bipiperidin-1-yl)-3-{3-[4-chloro-3-(cyclohexylethynyl)phenyl]-5-(methylsulfonyl)-4,5,6,7-tetrahydro-1H-pyrazolo[4,3-c]pyridin-1-yl}propan-2-ol]", "IC50": 4510}
{"smiles": "COC(=O)C1Cc2cc(C#Cc3cc(-c4nn(CCCN5CCOCC5)c5c4CN(S(C)(=O)=O)CC5)ccc3Cl)ccc2CN1", "note": "(centres unmarked) [Example 205, Methyl 6-({2-chloro-5-[5-(methylsulfonyl)-1-(3-morpholin-4-ylpropyl)-4,5,6,7-tetrahydro-1H-pyrazolo[4,3-c]pyridin-3-yl]phenyl}ethynyl)-1,2,3,4-tetrahydroisoquinoline-3-carboxylate]", "IC50": 270}
{"smiles": "CS(=O)(=O)N1CCc2c(c(-c3ccc(Cl)c(C#Cc4ccc(CN)cc4)c3)nn2CCCN2CCOCC2)C1", "note": "[Example 69, 4-{2-Chloro-5-[5-methanesulfonyl-1-(3-morpholin-4-yl-propyl)-4,5,6,7-tetrahydro-1H-pyrazolo[4,3-c]pyridin-3-yl]-phenylethynyl}-benzylamine]", "IC50": 530}
{"smiles": "CS(=O)(=O)N1CCc2c(c(-c3ccc(Cl)c(C#Cc4ccc(Cl)cc4)c3)nn2C[C@@H](O)CN2CCC(C3CCNCC3)CC2)C1", "note": "[Example 448, (2S)-1-(4,4′-Bipiperidin-1-yl)-3-[3-{4-chloro-3-[(4-chlorophenyl)ethynyl]phenyl}-5-(methylsulfonyl)-4,5,6,7-tetrahydro-1H-pyrazolo[4,3-c]pyridin-1-yl]propan-2-ol]", "IC50": 10}
{"smiles": "CS(=O)(=O)N1CCc2c(c(-c3ccc(Cl)c(C#Cc4ccc5c(c4)CC(C(=O)N4CCCCC4)NC5)c3)nn2CCCN2CCOCC2)C1", "note": "(centres unmarked) [Example 204, 6-({2-Chloro-5-[5-(methylsulfonyl)-1-(3-morpholin-4-ylpropyl)-4,5,6,7-tetrahydro-1H-pyrazolo[4,3-c]pyridin-3-yl]phenyl}ethynyl)-3-(piperidin-1-ylcarbonyl)-1,2,3,4-tetrahydroisoquinoline]", "IC50": 120}
{"smiles": "NC(=O)N1CCc2c(c(-c3ccc(Cl)c(C#Cc4ccc(CNCc5ccc(Cl)cc5)cc4)c3)nn2CCCN2CCC(C(F)(F)F)CC2)C1", "note": "[Example 455, 3-(4-Chloro-3-{[4-({[(4-chlorophenyl)methyl]amino}methyl)phenyl]ethynyl}phenyl)-1-{3-[4-(trifluoromethyl)piperidin-1-yl]propyl}-1,4,6,7-tetrahydro-5H-pyrazolo[4,3-c]pyridine-5-carboxamide]", "IC50": 40}
{"target": "Recombinant human cathepsin S (CatS) (Homo sapiens, UniProt P25774)", "test": "Recombinant human cathepsin S (CatS) inhibition assay, fluorogenic substrate Z-Valine-Valine-Arginine-AMC;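 note: Baculovirus-expressed CatS in pH 5.0 sodium acetate buffer with DTT and NaCl, fluorescence read each minute over 20 min, inhibition derived from rate slope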", "settings": "CatS IC50", "units": {"IC50": "nM"}}
{"smiles": "CN(C)Cc1cc(C#Cc2cc(-c3nn(CCCN4CCCCC4)c4c3CN(S(C)(=O)=O)CC4)ccc2Cl)ccc1Cl", "note": "[Example 617, 1-[2-Chloro-5-({2-chloro-5-[5-(methylsulfonyl)-1-(3-piperidin-1-ylpropyl)-4,5,6,7-tetrahydro-1H-pyrazolo[4,3-c]pyridin-3-yl]phenyl}ethynyl)phenyl]-N,N-dimethylmethanamine]", "IC50": 40}
{"smiles": "CS(=O)(=O)N1CCc2c(c(-c3ccc(Cl)c(C#Cc4ccc(CN5CCc6ccccc6C5)cc4)c3)nn2CCCN2CCOCC2)C1", "note": "[Example 442, 2-{[4-({2-Chloro-5-[5-(methylsulfonyl)-1-(3-morpholin-4-ylpropyl)-4,5,6,7-tetrahydro-1H-pyrazolo[4,3-c]pyridin-3-yl]phenyl}ethynyl)phenyl]methyl}-1,2,3,4-tetrahydroisoquinoline]", "IC50": 300}
{"smiles": "C[C@H]1COCCN1C[C@@H](O)Cn1nc(-c2ccc(Cl)c(C#Cc3ccc(CNCc4ccc(Cl)cc4)cc3)c2)c2c1CCN(C(=O)C(N)=O)C2", "note": "[Example 256, 2-{3-(4-Chloro-3-{4-[(4-chloro-benzylamino)-methyl]-phenylethynyl}-phenyl)-1-[(2R)-2-hydroxy-3-((3S)-3-methyl-morpholin-4-yl)-propyl]-1,4,6,7-tetrahydro-pyrazolo[4,3-c]pyridin-5-yl}-2-oxo-acetamide]", "IC50": 50}
{"smiles": "CS(=O)(=O)N1CCc2c(c(-c3ccc(Cl)c(C#Cc4cccc(C=O)c4)c3)nn2CCCN2CCOCC2)C1", "note": "[Example 184, 3-({2-Chloro-5-[5-(methylsulfonyl)-1-(3-morpholin-4-ylpropyl)-4,5,6,7-tetrahydro-1H-pyrazolo[4,3-c]pyridin-3-yl]phenyl}ethynyl)benzaldehyde]", "IC50": 320}
{"smiles": "NC(=O)C(=O)N1CCc2c(c(-c3ccc(Cl)c(C#Cc4ccc(Cl)c(C(=O)N5CCCNCC5)c4)c3)nn2CCCN2CCSCC2)C1", "note": "[Example 569, 2-[3-(4-Chloro-3-{[4-chloro-3-(1,4-diazepan-1-ylcarbonyl)phenyl]ethynyl}phenyl)-1-(3-thiomorpholin-4-ylpropyl)-1,4,6,7-tetrahydro-5H-pyrazolo[4,3-c]pyridin-5-yl]-2-oxoacetamide]", "IC50": 150}
{"smiles": "CS(=O)(=O)N1CCc2c(c(-c3ccc(Cl)c(C#Cc4cccc(CNc5ccccc5)c4)c3)nn2CCCN2CCOCC2)C1", "note": "[Example 511, N-{[3-({2-Chloro-5-[5-(methylsulfonyl)-1-(3-morpholin-4-ylpropyl)-4,5,6,7-tetrahydro-1H-pyrazolo[4,3-c]pyridin-3-yl]phenyl}ethynyl)phenyl]methyl}aniline]", "IC50": 1610}
{"smiles": "CN(C)c1ccc(CNCc2ccc(C#Cc3cc(-c4nn(CCCN5CCSCC5)c5c4CN(C(N)=O)CC5)ccc3Cl)cc2)cc1", "note": "[Example 175, 3-[4-Chloro-3-({4-[({[4-(dimethylamino)phenyl]methyl}amino)methyl]phenyl}ethynyl)phenyl]-1-(3-thiomorpholin-4-ylpropyl)-1,4,6,7-tetrahydro-5H-pyrazolo[4,3-c]pyridine-5-carboxamide]", "IC50": 190}
{"smiles": "CS(=O)(=O)N1CCc2c(c(-c3ccc(Cl)c(C#Cc4ccc(CNCc5ccc(Cl)cc5)cc4)c3)nn2CCCN2CCNC(=O)C2)C1", "note": "[Example 397, 4-{3-[3-(4-Chloro-3-{[4-({[(4-chlorophenyl)methyl]amino}methyl)phenyl]ethynyl}phenyl)-5-(methylsulfonyl)-4,5,6,7-tetrahydro-1H-pyrazolo[4,3-c]pyridin-1-yl]propyl}piperazin-2-one]", "IC50": 510}
{"smiles": "C[C@H]1COCCN1CCCn1nc(-c2ccc(Cl)c(C#Cc3ccc(CNCc4ccc(Cl)cc4)cc3)c2)c2c1CCN(C(=O)CO)C2", "note": "[Example 402, 2-[3-(4-Chloro-3-{[4-({[(4-chlorophenyl)methyl]amino}methyl)phenyl]ethynyl}phenyl)-1-{3-[(3S)-3-methylmorpholin-4-yl]propyl}-1,4,6,7-tetrahydro-5H-pyrazolo[4,3-c]pyridin-5-yl]-2-oxoethanol]", "IC50": 150}
{"target": "Recombinant human cathepsin S (CatS) (Homo sapiens, UniProt P25774)", "test": "Recombinant human cathepsin S (CatS) inhibition assay, fluorogenic substrate Z-Valine-Valine-Arginine-AMC;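 note: Baculovirus-expressed CatS in pH 5.0 sodium acetate buffer with DTT and NaCl, fluorescence read each minute over 20 min, inhibition derived from rate slope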", "settings": "CatS IC50, Table 2; average of results obtained", "units": {"IC50": "nM"}}
{"smiles": "CS(=O)(=O)N1CCc2c(c(-c3ccc(Cl)c(C#Cc4ccc(C(=O)O)cc4)c3)nn2CCCN2CCOCC2)C1", "note": "[Example 19, 4-{2-Chloro-5-[5-methanesulfonyl-1-(3-morpholin-4-yl-propyl)-4,5,6,7-tetrahydro-1H-pyrazolo[4,3-c]pyridin-3-yl]-phenylethynyl}-benzoic acid]", "IC50": 420}
